Measured values as given in paper PMC11078216, “Discovery of potent and selective activity-based probes (ABPs) for the deubiquitinating enzyme USP30” (RSC Chemical Biology, 2024).

Target: T1, CTSZ (Homo sapiens, UniProt Q9UBR2)
T1 construct: endogenous in cells; host or cells: HEK293T
Assay: ABPP chemical proteomics (LC-MS/MS) in HEK293T cells
Assay type: cell-based
Protocol: To explore the selectivity of IMP-2587 and IMP-2586 across the whole proteome, we performed quantitative activity-based protein profiling (ABPP) in HEK293T cells following treatment with IMP-2587 or IMP-2586 (Fig. 3a). After ABP incubation, cells were lysed, and probe-labelled proteins were ligated to biotinylated capture reagents.[27] […] USP30 was outcompeted by corresponding parent inhibitors for each ABP (Fig. 5b and d and Tables S3 and S5, ESI ^†), confirming the high potency and rapid engagement of IMP-2587 and IMP-2586 in cells. […] DESI1 and DESI2 are small ubiquitin-related modifier (SUMO) proteases,[3,29–32] and IMP-2587 and IMP-2586 may offer a starting point for future development of DESI ABPs. […]
The cells were washed with PBS and lysed with lysis buffer (50 μL (1% (v/v) Triton X-100, 0.1% (w/v) sodium dodecyl sulfate (SDS), EDTA-free complete protease inhibitor cocktail (1×, Roche) in PBS on ice for 10 min. The lysates were scraped and transferred to corresponding Lo-Bind Eppendorfs. Each lysate was sonicated for 1 minute, and the samples centrifuges at 5,000 x g at 4 °C for 5 minutes to pellet insoluble cellular debris. The supernatant was collected, and protein concentration was determined using the DC Protein Assay (Bio-Rad) as per manufacturer’s instructions, and normalised to lowest concentrated sample (e.g. 1 mg/mL, using lysis buffer). […]

T1 sequence (Q9UBR2 62-303): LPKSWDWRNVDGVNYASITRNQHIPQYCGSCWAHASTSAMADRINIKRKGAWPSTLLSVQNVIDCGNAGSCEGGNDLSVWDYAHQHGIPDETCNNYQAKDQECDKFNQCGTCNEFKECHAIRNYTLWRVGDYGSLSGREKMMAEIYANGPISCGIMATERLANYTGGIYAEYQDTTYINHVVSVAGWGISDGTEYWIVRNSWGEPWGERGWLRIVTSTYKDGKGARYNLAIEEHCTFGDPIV

| SMILES | Difference (log2 fold change of enrichment) (IMP-2587 labelling vs DMSO, 30 nM, 10 min, HEK293T (Table S2, Fig.5a)) | Difference (log2 fold change of enrichment) (compound 1 out-competition with IMP-2587 labelling, HEK293T (Table S3, Fig.5b)) |
| --- | --- | --- |
| C#Cc1cccc(-c2cc(NC(=O)CC3CCN(C#N)C3)on2)c1 (centres unmarked) [IMP-2587] | 2.29 | – |
| N#CN1CC[C@H](CC(=O)Nc2cc(-c3cccc(Cl)c3)no2)C1 [compound 1, reference compound] | – | -2.01 |
